Values of other authors as cited in patent US8796195B2 (priority 2007, dated 2014).
“And” between values parts separate entries of the source, which are not always exact repeats. Equal values may be shown once.

Columns and labels:
[1] = based on 48% tetrafluoroboric acid

| SMILES | pKa | LD50 (toxic by ingestion) [1] |
| --- | --- | --- |
| F[B-](F)(F)F.[H+] [Tetrafluoroboric acid, tetrafluoroboric acid] | approximately −3 | 100 to 464 mg/kg |
| F [HF, hydrofluoric acid] | 3.4 and ~3.5 | – |
